The text below walks through data of US20240025887A1, “THIENYL AND CYCLOALKYL AMINOPYRIMIDINE COMPOUNDS AS INHIBITORS OF NUAK KINASES, COMPOSITIONS AND USES THEREOF” (Ontario Institute for Cancer Research (OICR), priority 2021, published 2024).

Each structure is given as a SMILES string.

What is called IC50 is the midpoint of a concentration-inhibition curve.

The test system of test [1] is YAP/TAZ nuclear localization in several cancer cell lines. The conditions noted are these: IF confocal microscopy; cited from earlier work.
In test [2] the test system is YAP/TAZ transcriptional function in several cancer cell lines. As to conditions: PCR; cited from earlier work.
A further test has as its system MDA-MB-231 cells. In words: Tumor cell growth inhibition assay (ATPlite). The class given is cell-based. The conditions noted are these: Homo sapiens, 120 h, MDA-MB-231 breast tumor cell line, 5 days. On the procedure:
MDA-MB-231 cells were seeded into a 384-well plate at 1,000 cells/well in 50 μl medium (Alpha-MEM containing 10% FBS, […] Normocin, Invivogen and […] Gentamycin, Invitrogen). Plates were then incubated overnight for the cells to attach. An HP D300 digital dispenser was used to dose cells with DMSO or test compounds across a 16-point range of concentrations (high dose of 10 uM to low dose of 5 nM). Plates were incubated in a humidified 5% CO2 incubator at 37° C. After 5 days, plates were removed from the incubator and equilibrated to room temperature. An equal volume of ATPlite assay reagent was then added to each well, and samples processed according to manufacturer's instructions (Perkin Elmer). Luminescent signals were then measured using an Envision plate reader equipped with a US-Luminescence detector.
In general terms: In ATP-based viability assays light output follows the ATP content of the culture.

Another test concerns the target T1, NUAK1 (Homo sapiens, UniProt O60285).
T1 sequence (O60285 1-661): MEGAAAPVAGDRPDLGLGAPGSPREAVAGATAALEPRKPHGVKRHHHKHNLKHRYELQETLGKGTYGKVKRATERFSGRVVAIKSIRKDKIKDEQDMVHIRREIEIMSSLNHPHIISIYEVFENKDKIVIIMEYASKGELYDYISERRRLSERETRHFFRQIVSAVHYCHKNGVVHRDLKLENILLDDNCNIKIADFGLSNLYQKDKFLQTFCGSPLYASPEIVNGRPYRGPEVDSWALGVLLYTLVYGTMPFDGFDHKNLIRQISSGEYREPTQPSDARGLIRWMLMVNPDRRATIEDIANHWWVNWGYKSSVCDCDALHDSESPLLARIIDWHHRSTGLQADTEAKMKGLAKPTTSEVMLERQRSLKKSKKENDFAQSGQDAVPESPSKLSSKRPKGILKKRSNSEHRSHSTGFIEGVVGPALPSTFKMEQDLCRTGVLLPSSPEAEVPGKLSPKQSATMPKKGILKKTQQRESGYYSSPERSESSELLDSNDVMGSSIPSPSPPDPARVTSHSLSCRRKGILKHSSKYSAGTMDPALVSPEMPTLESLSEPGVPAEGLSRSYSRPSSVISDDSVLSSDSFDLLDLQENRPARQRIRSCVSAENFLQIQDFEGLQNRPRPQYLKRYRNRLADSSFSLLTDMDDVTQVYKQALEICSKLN
In words: NUAK1 counter screen. It counts as biochemical. Summed up:
(§1)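 Radiometric assay with full-length recombinant NUAK2 in 8 mM MOPS pH 7.0, 0.2 mM EDTA, 10 mM magnesium acetate, 300 μM peptide substrate and [33P]-ATP, 40 min at room temperature. Phosphoric acid stop, filter capture, scintillation counting. Aurora A and NUAK1 used as counter screens.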
(In general: Counterscreens check selectivity or assay interference.)

The target of a further test is T2, Aurora A (Homo sapiens, UniProt O14965).
T2 sequence (O14965 1-403): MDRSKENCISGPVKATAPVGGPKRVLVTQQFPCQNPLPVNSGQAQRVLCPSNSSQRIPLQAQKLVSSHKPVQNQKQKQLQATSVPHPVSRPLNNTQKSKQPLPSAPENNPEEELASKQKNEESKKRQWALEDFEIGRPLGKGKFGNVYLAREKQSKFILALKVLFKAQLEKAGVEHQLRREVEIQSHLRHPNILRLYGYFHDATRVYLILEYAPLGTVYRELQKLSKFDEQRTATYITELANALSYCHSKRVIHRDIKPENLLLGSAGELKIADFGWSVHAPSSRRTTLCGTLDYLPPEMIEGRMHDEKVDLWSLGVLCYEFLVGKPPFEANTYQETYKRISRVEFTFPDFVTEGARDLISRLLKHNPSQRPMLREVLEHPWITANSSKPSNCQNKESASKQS
Nature of the test: Aurora A counter screen. It counts as biochemical. As to conditions: read-out: AUR-A (IC50). Put shortly: as §1

The target of a further test is T3, NUAK2 (h) (Homo sapiens, UniProt Q9H093).
T3 construct: This assay was done radiometrically using full-length, recombinant enzyme; purchased Eurofins
T3 sequence (Q9H093 1-628): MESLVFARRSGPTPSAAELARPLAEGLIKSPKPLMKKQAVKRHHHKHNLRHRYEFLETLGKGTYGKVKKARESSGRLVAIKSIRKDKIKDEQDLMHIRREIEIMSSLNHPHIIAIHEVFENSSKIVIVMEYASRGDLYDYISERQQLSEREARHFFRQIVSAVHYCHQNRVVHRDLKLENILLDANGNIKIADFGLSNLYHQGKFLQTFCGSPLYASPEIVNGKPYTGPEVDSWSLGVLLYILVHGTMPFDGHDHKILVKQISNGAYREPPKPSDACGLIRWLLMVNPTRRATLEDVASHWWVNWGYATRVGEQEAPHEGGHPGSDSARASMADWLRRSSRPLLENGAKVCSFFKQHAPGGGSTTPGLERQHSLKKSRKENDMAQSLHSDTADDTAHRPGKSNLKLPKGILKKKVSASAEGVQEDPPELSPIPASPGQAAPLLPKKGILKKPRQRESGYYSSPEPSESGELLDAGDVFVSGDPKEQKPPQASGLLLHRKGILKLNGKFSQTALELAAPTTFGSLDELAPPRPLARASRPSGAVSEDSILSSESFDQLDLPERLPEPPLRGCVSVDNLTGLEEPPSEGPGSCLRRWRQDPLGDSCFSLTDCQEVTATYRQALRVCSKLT
Nature of the test: NUAK2 enzymatic assay (radiometric, Eurofins). It counts as biochemical. As to conditions: for AUR-A (IC50, nM)/NUAK2 (IC50, nM): NUAK2 selectivity over Aurora-A, ratio of IC50s; for IC50: radiometric, full-length recombinant enzyme. Put shortly: as §1

For test [3], the system named is YAP/TAZ nuclear localization in Clover-YAP expressing MDA-MB-231 cells. Nature of the test: Cell-based YAP/TAZ localization assay. As to conditions: Clover-YAP MDA-MB-231 cells, live imaging every 10 min for 2 h, FIG. 1. How it is done: Compounds of the application were tested for their ability to inhibit localization of YAP/TAZ to the nucleus of cells using an assay generally described in Nature Communications, 2018, 9:3510. Live cell imaging of Clover-YAP expressing MDA-MB-231 cells was carried out using a custom WAVE-FX-X1 spinning disc confocal system (Quorum Technologies) with a modified Yokogawa CSU-X1 scanhead on an AxioObserver Z1 inverted microscope (Carl Zeiss) with a x40 NA 1.2 Plan Apochromat (Carl Zeiss) objective. Cells were plated in a 35 mm glass-bottom dish (Mat-Tek, P35G-1.5-14-C) and were maintained in a stage-top incubator at 37° C. and 5% CO2 during imaging. Cells were cultured in phenol-red free RPMI medium (Thermo Fisher Scientific, 11835030) with 5% FBS and 200 nM SiR-DNA (Spirochrom, S0007) was added 1 h prior to imaging to visualize the nuclei. Localization of Clover-YAP was monitored every 10 min for 2 h. Volocity software was used for image acquisition and processing.

Test [4] deals with pSer445 MYPT1 in MDA-MB-231 cells. Nature of the test: Cell-based phospho-MYPT1 assay. The conditions noted are these: 500 nM, 1 hour, immunoblot, FIG. 2. How it is done: Compounds with sufficient activity in the biochemical NUAK assay were evaluated in a cell-based assay to confirm their targeted activity. To allow direct assessment of target engagement by NUAK2 inhibitors in cells, an antibody to MYPT1, a NUAK2 substrate, which specifically recognizes the phosphorylated Ser445 epitope in endogenous MYPT1 protein was utilized (Biochem J. 2014 457 (Pt 1): 215-225; Biochem J. 201 461 (Pt 2): 233-245).
MDA-MB-231 cells were incubated in the absence (DMSO) or presence of Compound I-1 (500 nM) for 1 hour. Cell were lysed at 4° C. for 30 mins in RIPA buffer (50 mM tris-HCL, 150 mM NaCl, 1 mM EDTA, 0.1% SDS, 1% NP-40, 0.5% Sodium deoxycholate) containing protease and phosphatase inhibitors. Samples were separated by sodium dodecyl sulfate-polyacrylamide gel electrophoresis (SDS-PAGE), transferred to nitrocellulose and immunoblotted for the detection of pSer^445MYPT1 or ACTIN.

For `CN1CCN(c2ccc(Nc3ncc4cc(C#N)c(=O)n(C5CCCC5)c4n3)cc2)CC1` [ON123300], the YAP/TAZ nuclear localization entry in test [1] is reported as “a block of YAP/TAZ nuclear localization”. In addition, in test [2], the “YAP/TAZ transcriptional function (target gene expression)” value was “attenuates transcriptional function”.

On to `CCC(=O)Nc1cccc(Oc2nc(Nc3ccc(N4CCN(C)CC4)cc3OC)ncc2Cl)c1` [WZ4003], for which the YAP/TAZ nuclear localization entry in test [1] is given as “a block of YAP/TAZ nuclear localization”. Moreover, the “YAP/TAZ transcriptional function (target gene expression)” value in test [2] is “attenuates transcriptional function”.

`CN1CCN(c2ccc(Nc3ncc(Cl)c(Nc4ccsc4C(N)=O)n3)c(OC(F)F)c2)CC1` [Compound I-1, 3-((5-chloro-2-((2-(difluoromethoxy)-4-(4-methylpiperazin-1-yl)phenyl)amino)pyrimidin-4-yl)amino)thiophene-2-carboxamide]: the IC50 in the test on MDA-MB-231 cells is 195 nM; on NUAK1, 11 to 100 nM; on Aurora A it was 101 to 1000 nM; at NUAK2 (h) it was 0.1 to 10 nM. Moreover, the “AUR-A (IC50, nM)/NUAK2 (IC50, nM)” value at NUAK2 (h) is 40. Moreover, the “inhibition of YAP/TAZ nuclear localization” value in test [3] is given as “significant improvement in inhibition of YAP/TAZ nuclear localization”. Besides, the “formation of cellular p-MYPT1 (pSer445)” value in test [4] is “inhibits the formation of cellular p-MYPT1”.

For the compound `CC(C)N1CCN(C2CCN(c3ccc(Nc4ncc(C(F)(F)F)c(Nc5ccsc5C(N)=O)n4)c(OC(F)F)c3)CC2)CC1` [Compound I-78, 3-((2-((2-(difluoromethoxy)-4-(4-(4-isopropylpiperazin-1-yl)piperidin-1-yl)phenyl)amino)-5-(trifluoromethyl)pyrimidin-4-yl)amino)thiophene-2-carboxamide], the IC50 in the test with MDA-MB-231 cells is 96 nM; at NUAK1 it was 11 to 100 nM; at Aurora A, 101 to 1000 nM; on NUAK2 (h), 11 to 100 nM.

For the compound `CN1CCN(c2ccc(Nc3ncc(Cl)c(N[C@@H]4CCCC[C@H]4C(N)=O)n3)c(OC(F)F)c2)CC1` [Compound I-82, (1R,2R)-2-((5-chloro-2-((2-(difluoromethoxy)-4-(4-methylpiperazin-1-yl)phenyl)amino)pyrimidin-4-yl)amino)cyclohexane-1-carboxamide], the IC50 in the test with MDA-MB-231 cells is 858 nM; on NUAK1, 11 to 100 nM; on Aurora A it was 101 to 1000 nM; at NUAK2 (h), 0.1 to 10 nM. Further, the “AUR-A (IC50, nM)/NUAK2 (IC50, nM)” value at NUAK2 (h) is 176.

Consider `CN1CCCN(C2CCN(c3ccc(Nc4ncc(C(F)(F)F)c(Nc5ccsc5C(N)=O)n4)c(OC(F)F)c3)CC2)CC1` [Compound I-75, 3-((2-((2-(difluoromethoxy)-4-(4-(4-methyl-1,4-diazepan-1-yl)piperidin-1-yl)phenyl)amino)-5-(trifluoromethyl)pyrimidin-4-yl)amino)thiophene-2-carboxamide], for which the half-maximal inhibitory concentration (IC50) with MDA-MB-231 cells is 120 nM; against NUAK1 it was 11 to 100 nM; at Aurora A it was 101 to 1000 nM; on NUAK2 (h) it was 0.1 to 10 nM.

For the compound `CN1CCN(C2CCN(c3ccc(Nc4ncc(Cl)c(N[C@@H]5CCCC[C@H]5C(N)=O)n4)c(OC(F)F)c3)CC2)CC1` [Compound I-87, (1R,2R)-2-((5-chloro-2-((2-(difluoromethoxy)-4-(4-(4-methylpiperazin-1-yl)piperidin-1-yl)phenyl)amino)pyrimidin-4-yl)amino)cyclohexane-1-carboxamide], the IC50 in the test on MDA-MB-231 cells is 932 nM; at NUAK1, 11 to 100 nM; on Aurora A, over 1000 nM; at NUAK2 (h), 11 to 100 nM.
